Experimental data taken from patent US8680159B2, “Bradykinin 1 receptor modulating compounds” (Gruenenthal GmbH, priority 2010, dated 2014).

How the values were obtained:
[1] = target: T1, B1R receptor of the rat (CHO K1 cells stably transfected with the B1R gene of the rat) (Rattus norvegicus, UniProt P97583); experiment: Functional study on the bradykinin receptor 1 (B1R), Ca2+ fluorescence (Fluo-4) FLIPR/Novostar assay, rB1R cells; type: cell-based; settings: for inhibition at 10 µM: CHO-K1, 10 μM, read-out: % Inhibition (r-B1R) at 10 μM
T1 construct: expressed in transfected cells; host or cells: CHO K1 cells (Chinese hamster ovary), stably transfected
T1 sequence (P97583 1-337): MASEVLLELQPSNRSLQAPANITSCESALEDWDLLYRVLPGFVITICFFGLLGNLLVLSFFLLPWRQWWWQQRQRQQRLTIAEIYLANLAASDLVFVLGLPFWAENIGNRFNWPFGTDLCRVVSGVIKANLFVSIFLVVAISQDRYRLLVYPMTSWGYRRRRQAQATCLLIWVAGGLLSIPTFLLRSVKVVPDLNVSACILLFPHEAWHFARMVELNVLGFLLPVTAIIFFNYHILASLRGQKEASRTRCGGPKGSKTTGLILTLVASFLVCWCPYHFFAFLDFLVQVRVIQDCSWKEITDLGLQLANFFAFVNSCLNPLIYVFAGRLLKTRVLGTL
In short: (§1)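 Stably transfected CHO K1 cells carrying human or rat B1R were Fluo-4 loaded and Ca2+ fluorescence read by FLIPR or Novostar. Compounds were added first at 10 μM for % activation, then the EC80 agonist was applied after 6-20 min (human: Lys-Des-Arg9-bradykinin; rat: Des-Arg9-bradykinin). % inhibition is relative to maximum achievable inhibition, and IC50 comes from concentration series.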

[2] = target: T2, human B1R receptor (CHO K1 cells stably transfected with the human B1R gene) (Homo sapiens, UniProt P46663); experiment: Functional study on the bradykinin receptor 1 (B1R), Ca2+ fluorescence (Fluo-4) FLIPR/Novostar assay, hB1R cells; type: cell-based; settings: CHO-K1, read-out: % Inhibition (h-B1R) at 10 μM
T2 construct: expressed in transfected cells; host or cells: CHO K1 cells (Chinese hamster ovary), stably transfected
T2 sequence (P46663 1-353): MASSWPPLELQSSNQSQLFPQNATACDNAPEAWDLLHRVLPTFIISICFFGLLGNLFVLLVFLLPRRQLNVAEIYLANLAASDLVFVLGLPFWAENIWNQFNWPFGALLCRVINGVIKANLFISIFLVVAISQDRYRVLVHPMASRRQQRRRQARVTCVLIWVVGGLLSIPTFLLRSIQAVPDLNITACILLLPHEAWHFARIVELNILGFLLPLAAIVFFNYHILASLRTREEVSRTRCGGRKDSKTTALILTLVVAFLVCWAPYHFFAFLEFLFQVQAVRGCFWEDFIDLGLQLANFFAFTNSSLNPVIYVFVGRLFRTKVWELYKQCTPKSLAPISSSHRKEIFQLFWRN
In short: as §1

Row | Compound | inhibition at 10 µM [1] | inhibition at 10 µM [2] | % Inhibition (r-B1R) at 10 μM ([1]; 10 μM)
1 | CC(C)CC(=O)NC1CC(C)(C)c2ccc(C(=O)N(C)C3CCN(c4ccncc4)CC3)cc21 (stereo not shown) [CC_H-43, N,1,1-Trimethyl-3-(3-methyl-butanoylamino)-N-(1-pyridin-4-yl-piperidin-4-yl)-2,3-dihydro-indene-5-carboxylic acid amide] | 105% | 100% | 
2 | CN(C(=O)NC1CCc2ccc(C(=O)N(C)C3CCN(c4ccncc4)CC3)cc21)c1ccccc1Cl (stereo not shown) [CC_H-44, 3-[[(2-Chlorophenyl)-methyl-carbamoyl]amino]-N-methyl-N-(1-pyridin-4-yl-piperidin-4-yl)-2,3-dihydro-1H-indene-5-carboxylic acid amide] | 104% | 100% | 
3 | CN(C(=O)c1ccc2c(c1)C(N(C)C(=O)c1cncnc1)CC2)C1CCN(c2ccncc2)CC1 (stereo not shown) [CC_H-45, N-Methyl-N-[6-[methyl-(1-pyridin-4-yl-piperidin-4-yl)-carbamoyl]-2,3-dihydro-1H-inden-1-yl]-pyrimidine-5-carboxylic acid amide] | 88% | 96% | 
4 | CN(C(=O)c1ccc2c(c1)C(NC(=O)c1cncnc1)CC2)C1CCN(c2ccncc2)CC1 (stereo not shown) [CC_H-48, N-[6-[Methyl-(1-pyridin-4-yl-piperidin-4-yl)-carbamoyl]-2,3-dihydro-1H-inden-1-yl]-pyrimidine-5-carboxylic acid amide] | 78% | 96% | 
5 | CN(C(=O)c1ccc2c(c1)C(NC(=O)CCC1CCCC1)CCO2)C1CCN(c2ccncc2)CC1 (stereo not shown) [CC_H-49, 4-(3-Cyclopentyl-propanoylamino)-N-methyl-N-(1-pyridin-4-yl-piperidin-4-yl)-3,4-dihydro-2H-chromene-6-carboxylic acid amide] | 102% | 99% | 
6 | CN(C(=O)N(C)C1CCc2ccc(C(=O)N(C)C3CCN(c4ccncc4)CC3)cc21)c1ccccc1Cl (stereo not shown) [CC_H-51, 3-[[(2-Chlorophenyl)-methyl-carbamoyl]-methyl-amino]-N-methyl-N-(1-pyridin-4-yl-piperidin-4-yl)-2,3-dihydro-1H-indene-5-carboxylic acid amide] | 90% | 99% | 
7 | CN(C(=O)c1ccc2c(c1)C(NC(=O)c1cccc(Cl)c1Cl)CC2)C1CCN(c2ccc3cnccc3c2)CC1 (stereo not shown) [CC_H-52, 3-[(2,3-Dichloro-benzoyl)amino]-N-(1-isoquinolin-6-yl-piperidin-4-yl)-N-methyl-2,3-dihydro-1H-indene-5-carboxylic acid amide] | 98% | 99% | 
8 | CN(C(=O)c1ccc2c(c1)C(NS(=O)(=O)Cc1ccccc1C(F)(F)F)CC2)C1CCN(c2ccc3cnccc3c2)CC1 (stereo not shown) [CC_H-55, N-(1-Isoquinolin-6-yl-piperidin-4-yl)-N-methyl-3-[[[2-(trifluoromethyl)-phenyl]-methylsulfonyl]amino]-2,3-dihydro-1H-indene-5-carboxylic acid amide] | 96% | 99% | 
9 | CN(C(=O)c1ccc2c(c1)CCC2NC(=O)C1CCCCC1)C1CCN(c2ccncc2)CC1 (stereo not shown) [CC_H-58, 1-(Cyclohexanecarbonylamino)-N-methyl-N-(1-pyridin-4-yl-piperidin-4-yl)-2,3-dihydro-1H-indene-5-carboxylic acid amide] | 77% | 96% | 
10 | CN(C(=O)c1ccc2c(c1)C(NC(=O)CCC1CCCC1)CC2)C1CCN(c2ccncc2)CC1 (stereo not shown) [CC_H-59, 3-(3-Cyclopentyl-propanoylamino)-N-methyl-N-(1-pyridin-4-yl-piperidin-4-yl)-2,3-dihydro-1H-indene-5-carboxylic acid amide] | 103% | 99% | 
11 | CN(C(=O)c1ccc2c(c1)C(NC(=O)c1c(Cl)cccc1C(F)(F)F)CC2)C1CCN(c2ccc3cnccc3c2)CC1 (stereo not shown) [CC_H-62, 3-[[2-Chloro-6-(trifluoromethyl)-benzoyl]amino]-N-(1-isoquinolin-6-yl-piperidin-4-yl)-N-methyl-2,3-dihydro-1H-indene-5-carboxylic acid amide] | 101% | 84% | 
12 | CN(C(=O)c1ccc2c(c1)CCC2NC(=O)c1cc(F)ccc1Cl)C1CCN(c2ccncc2)CC1 (stereo not shown) [CC_H-64, 1-[(2-Chloro-5-fluoro-benzoyl)amino]-N-methyl-N-(1-pyridin-4-yl-piperidin-4-yl)-2,3-dihydro-1H-indene-5-carboxylic acid amide] | 87% | 100% | 
13 | CN(C(=O)c1ccc2c(c1)CCC2NC(=O)CCC1CCCC1)C1CCN(c2ccncc2)CC1 (stereo not shown) [CC_H-65, 1-(3-Cyclopentyl-propanoylamino)-N-methyl-N-(1-pyridin-4-yl-piperidin-4-yl)-2,3-dihydro-1H-indene-5-carboxylic acid amide] | 48% | 98% | 
14 | Cc1cccc(C)c1C(=O)NC1CCc2cc(C(=O)N(C)C3CCN(c4ccncc4)CC3)ccc21 (stereo not shown) [CC_H-66, 1-[(2,6-Dimethyl-benzoyl)amino]-N-methyl-N-(1-pyridin-4-yl-piperidin-4-yl)-2,3-dihydro-1H-indene-5-carboxylic acid amide] | 86% | 99% | 
15 | CN(C(=O)c1ccc2c(c1)CCC2NC(=O)c1cccc(Cl)c1Cl)C1CCN(c2ccncc2)CC1 (stereo not shown) [CC_H-67, 1-[(2,3-Dichloro-benzoyl)amino]-N-methyl-N-(1-pyridin-4-yl-piperidin-4-yl)-2,3-dihydro-1H-indene-5-carboxylic acid amide] | 98% | 100% | 

Other lines, results leading:

Row | inhibition at 10 µM [1] | inhibition at 10 µM [2] | % Inhibition (r-B1R) at 10 μM ([1]; 10 μM) | Compound
16 | 104% | 99% |  | CN(C(=O)c1ccc2c(c1)C(NC(=O)c1cnccc1C(F)(F)F)CCO2)C1CCN(c2ccncc2)CC1 (stereo not shown) [CC_H-42, N-[6-[Methyl-(1-pyridin-4-yl-piperidin-4-yl)-carbamoyl]-3,4-dihydro-2H-chromen-4-yl]-4-(trifluoromethyl)-pyridine-3-carboxylic acid amide]
17 | 104% | 99% |  | CN(C(=O)c1ccc2c(c1)C(N(C)S(=O)(=O)Cc1ccccc1C(F)(F)F)CC2)C1CCN(c2ccncc2)CC1 (stereo not shown) [CC_H-46, N-Methyl-3-[methyl-[[2-(trifluoromethyl)-phenyl]-methylsulfonyl]-amino]-N-(1-pyridin-4-yl-piperidin-4-yl)-2,3-dihydro-1H-indene-5-carboxylic acid amide]
18 | 104% | 99% |  | CN(C(=O)c1ccc2c(c1)C(NS(=O)(=O)c1c(Cl)cccc1C(F)(F)F)CCO2)C1CCN(c2ccncc2)CC1 (stereo not shown) [CC_H-47, 4-[[[2-Chloro-6-(trifluoromethyl)-phenyl]sulfonyl]amino]-N-methyl-N-(1-pyridin-4-yl-piperidin-4-yl)-3,4-dihydro-2H-chromene-6-carboxylic acid amide]
19 | 101% | 100% |  | O=C(NCCC1CCN(c2ccncc2)CC1)c1ccc2c(c1)C(NS(=O)(=O)c1c(Cl)cccc1C(F)(F)F)CC2 (stereo not shown) [CC_H-50, 3-[[[2-Chloro-6-(trifluoromethyl)-phenyl]sulfonyl]amino]-N-[2-(1-pyridin-4-yl-piperidin-4-yl)-ethyl]-2,3-dihydro-1H-indene-5-carboxylic acid amide]
20 | 104% | 100% |  | CN(C(=O)c1ccc2c(c1)C(NS(=O)(=O)c1c(Cl)cccc1C(F)(F)F)CC2)C1CCN(c2ccncc2)CC1 (stereo not shown) [CC_H-54, 3-[[[2-Chloro-6-(trifluoromethyl)-phenyl]sulfonyl]amino]-N-methyl-N-(1-pyridin-4-yl-piperidin-4-yl)-2,3-dihydro-1H-indene-5-carboxylic acid amide]
21 |  | 100% | 101% | CN(C(=O)NC1CCOc2ccc(C(=O)N(C)C3CCN(c4ccncc4)CC3)cc21)c1ccccc1Cl (stereo not shown) [CC_H-57, 4-[[(2-Chlorophenyl)-methyl-carbamoyl]amino]-N-methyl-N-(1-pyridin-4-yl-piperidin-4-yl)-3,4-dihydro-2H-chromene-6-carboxylic acid amide]
22 | 80% | 100% |  | CN(C(=O)c1ccc2c(c1)CCC2NS(=O)(=O)Cc1ccccc1C(F)(F)F)C1CCN(c2ccncc2)CC1 (stereo not shown) [CC_H-61, N-Methyl-N-(1-pyridin-4-yl-piperidin-4-yl)-1-[[[2-(trifluoromethyl)-phenyl]-methylsulfonyl]amino]-2,3-dihydro-1H-indene-5-carboxylic acid amide]
23 | 103% | 99% |  | CN(C(=O)c1ccc2c(c1)C(NC(=O)c1cc(F)ccc1Cl)CCO2)C1CCN(c2ccncc2)CC1 (stereo not shown) [CC_H-63, 4-[(2-Chloro-5-fluoro-benzoyl)amino]-N-methyl-N-(1-pyridin-4-yl-piperidin-4-yl)-3,4-dihydro-2H-chromene-6-carboxylic acid amide]
